Experimental data taken from ChEMBL document CHEMBL5724914, “Linking interpersonal differences in gut microbiota composition and drug biotransformation activity” (2024).

Key:
[1] = The drug is tested on Z-013 corresponding to rabbit gut metagenome with ENA study accession number: PRJEB37062 and ENA sample accession number: ERS12561813 for biotransformation under anaerobic condition. The drug concentrations were measured over 9 timepoints collected between 0 and 24 hours of incubation by liquid-chromatography-coupled mass spectrometry (LC–MS); settings: 2 µM
[2] = The drug is tested on WLS-370 corresponding to human gut metagenome with ENA study accession number: PRJEB37062 and ENA sample accession number: ERS12561793 for biotransformation under anaerobic condition. The drug concentrations were measured over 9 timepoints collected between 0 and 24 hours of incubation by liquid-chromatography-coupled mass spectrometry (LC–MS); settings: 2 µM
[3] = human gut metagenome, 24 h, 2 µM
[4] = human gut metagenome, 24 h, 2 µM; remark: listed apart in the source
[5] = The drug is tested on Z-026 corresponding to metagenome with ENA study accession number: PRJEB37062 and ENA sample accession number: ERS12561825 for biotransformation under anaerobic condition. The drug concentrations were measured over 9 timepoints collected between 0 and 24 hours of incubation by liquid-chromatography-coupled mass spectrometry (LC–MS); settings: 2 µM
[6] = The drug is tested on WLS-010 corresponding to human gut metagenome with ENA study accession number: PRJEB37062 and ENA sample accession number: ERS12561743 for biotransformation under anaerobic condition. The drug concentrations were measured over 9 timepoints collected between 0 and 24 hours of incubation by liquid-chromatography-coupled mass spectrometry (LC–MS); settings: 2 µM
[7] = human gut metagenome, 24 h, 2 µM; remark: listed apart in the source
[8] = human gut metagenome, 24 h, 2 µM; remark: listed apart in the source
[9] = human gut metagenome, 24 h, 2 µM; remark: listed apart in the source
[10] = human gut metagenome, 24 h, 2 µM; remark: listed apart in the source
[11] = The drug is tested on Z-029 corresponding to rat gut metagenome with ENA study accession number: PRJEB37062 and ENA sample accession number: ERS12561828 for biotransformation under anaerobic condition. The drug concentrations were measured over 9 timepoints collected between 0 and 24 hours of incubation by liquid-chromatography-coupled mass spectrometry (LC–MS); settings: 2 µM
[12] = The drug is tested on Z-028 corresponding to mouse gut metagenome with ENA study accession number: PRJEB37062 and ENA sample accession number: ERS12561827 for biotransformation under anaerobic condition. The drug concentrations were measured over 9 timepoints collected between 0 and 24 hours of incubation by liquid-chromatography-coupled mass spectrometry (LC–MS); settings: 2 µM
[13] = The drug is tested on WLS-170 corresponding to human gut metagenome with ENA study accession number: PRJEB37062 and ENA sample accession number: ERS12561762 for biotransformation under anaerobic condition. The drug concentrations were measured over 9 timepoints collected between 0 and 24 hours of incubation by liquid-chromatography-coupled mass spectrometry (LC–MS); settings: 2 µM
[14] = The drug is tested on Z-021 corresponding to metagenome with ENA study accession number: PRJEB37062 and ENA sample accession number: ERS12561820 for biotransformation under anaerobic condition. The drug concentrations were measured over 9 timepoints collected between 0 and 24 hours of incubation by liquid-chromatography-coupled mass spectrometry (LC–MS); settings: 2 µM
[15] = The drug is tested on Z-020 corresponding to rabbit gut metagenome with ENA study accession number: PRJEB37062 and ENA sample accession number: ERS12561819 for biotransformation under anaerobic condition. The drug concentrations were measured over 9 timepoints collected between 0 and 24 hours of incubation by liquid-chromatography-coupled mass spectrometry (LC–MS); settings: 2 µM
[16] = human gut metagenome, 24 h, 2 µM; remark: listed apart in the source
[17] = The drug is tested on WLS-082 corresponding to human gut metagenome with ENA study accession number: PRJEB37062 and ENA sample accession number: ERS12561751 for biotransformation under anaerobic condition. The drug concentrations were measured over 9 timepoints collected between 0 and 24 hours of incubation by liquid-chromatography-coupled mass spectrometry (LC–MS); settings: 2 µM
[18] = The drug is tested on WLS-027 corresponding to human gut metagenome with ENA study accession number: PRJEB37062 and ENA sample accession number: ERS12561744 for biotransformation under anaerobic condition. The drug concentrations were measured over 9 timepoints collected between 0 and 24 hours of incubation by liquid-chromatography-coupled mass spectrometry (LC–MS); settings: 2 µM
[19] = The drug is tested on Z-002 corresponding to rabbit gut metagenome with ENA study accession number: PRJEB37062 and ENA sample accession number: ERS12561802 for biotransformation under anaerobic condition. The drug concentrations were measured over 9 timepoints collected between 0 and 24 hours of incubation by liquid-chromatography-coupled mass spectrometry (LC–MS); settings: 2 µM
[20] = human gut metagenome, 24 h, 2 µM; remark: listed apart in the source
Also: call rule not given here.

SMILES | Bacterial Biotransformation [1] | Bacterial Biotransformation [2] | Bacterial Biotransformation [3] | Bacterial Biotransformation [4] | Bacterial Biotransformation [5] | Bacterial Biotransformation [6] | Bacterial Biotransformation [7] | Bacterial Biotransformation [8] | Bacterial Biotransformation [9] | Bacterial Biotransformation [10] | Bacterial Biotransformation [11] | Bacterial Biotransformation [12] | Bacterial Biotransformation [13] | Bacterial Biotransformation [14] | Bacterial Biotransformation [15] | Bacterial Biotransformation [16] | Bacterial Biotransformation [17] | Bacterial Biotransformation [18] | Bacterial Biotransformation [19] | Bacterial Biotransformation [20]
C[C@]12C=CC(=O)C=C1CC[C@@H]1[C@@H]2C(=O)C[C@@]2(C)[C@H]1CC[C@]2(O)C(=O)CO [PREDNISONE] | Compound NOT metabolized | Compound metabolized | Compound metabolized | Compound metabolized | Compound metabolized | Compound metabolized | Compound metabolized | Compound metabolized | Compound metabolized | Compound metabolized | Compound metabolized | Compound metabolized | Compound metabolized | Compound metabolized | Compound metabolized | Compound metabolized | Compound metabolized | Compound metabolized | Compound metabolized | Compound metabolized
C#C[C@]1(OC(C)=O)CC[C@H]2[C@@H]3CCC4=C/C(=N/O)CC[C@@H]4[C@H]3CC[C@@]21CC [NORGESTIMATE] | Compound NOT metabolized | Compound NOT metabolized | Compound metabolized | Compound NOT metabolized | Compound NOT metabolized | Compound metabolized | Compound metabolized | Compound NOT metabolized | Compound NOT metabolized | Compound metabolized | Compound metabolized | Compound NOT metabolized | Compound metabolized | Compound NOT metabolized | Compound NOT metabolized | Compound metabolized | Compound metabolized | Compound metabolized | Compound NOT metabolized | Compound metabolized
CC[C@H](C)C(=O)O[C@H]1CCC=C2C=C[C@H](C)[C@H](CC[C@@H]3C[C@@H](O)CC(=O)O3)[C@H]21 [MEVASTATIN] | Compound NOT metabolized | Compound NOT metabolized | Compound metabolized | Compound metabolized | Compound metabolized | Compound metabolized | Compound metabolized | Compound metabolized | Compound metabolized | Compound NOT metabolized | Compound NOT metabolized | Compound metabolized | Compound metabolized | Compound NOT metabolized | Compound NOT metabolized | Compound metabolized | Compound metabolized | Compound metabolized | Compound NOT metabolized | Compound NOT metabolized
COc1ccc2cc([C@H](C)C(=O)O)ccc2c1 [NAPROXEN] | Compound NOT metabolized | Compound NOT metabolized | Compound metabolized | Compound NOT metabolized | Compound NOT metabolized | Compound metabolized | Compound metabolized | Compound metabolized | Compound metabolized | Compound metabolized | Compound NOT metabolized | Compound NOT metabolized | Compound metabolized | Compound NOT metabolized | Compound NOT metabolized | Compound metabolized | Compound metabolized | Compound metabolized | Compound NOT metabolized | Compound metabolized
CN1CCC(OC(c2ccccc2)c2ccccc2)CC1 | Compound NOT metabolized | Compound metabolized | Compound metabolized | Compound NOT metabolized | Compound NOT metabolized | Compound NOT metabolized | Compound NOT metabolized | Compound NOT metabolized | Compound NOT metabolized | Compound NOT metabolized | Compound NOT metabolized | Compound NOT metabolized | Compound metabolized | Compound metabolized | Compound NOT metabolized | Compound NOT metabolized | Compound NOT metabolized | Compound NOT metabolized | Compound NOT metabolized | Compound NOT metabolized
